The subject of this assay is BDF1 mice, s.c. Lewis lung carcinoma, T/C %. Put plainly: NCI In Vivo Anticancer Drug Screen. Data for tumor model Lewis Lung Carcinoma (subcutaneous) in B6D2F1 (BDF1) mice. The essentials:
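First, mice carry a transplantable tumor. Next, groups receive either compound or vehicle. Finally, survival or tumor dimensions in the dosed animals are divided by the corresponding control figure.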

Where [1] appears, read: endpoint: mean tumor weight, dose: 62.5 mg/kg/injection, schedule: Q01DX011 (ip), vehicle: saline, higher = larger tumour.
Setting [2] is: endpoint: mean tumor weight, dose: 125.0 mg/kg/injection, schedule: Q01DX011 (ip), vehicle: saline, higher = larger tumour.
[3] abbreviates: endpoint: mean tumor weight, dose: 250.0 mg/kg/injection, schedule: Q01DX011 (ip), vehicle: saline, higher = larger tumour.

“And” between values parts separate entries of the source, which are not always exact repeats. Identical values can stand only once. Results filed as inconclusive are left out.

Among the data in PubChem BioAssay AID270 (DTP/NCI, 2004) are T/C values, retold here.

In the case of `C=C(C)C12CC(C)C34OC5(CCCCCCCC(C)C6C(C)C(OC(=O)c7ccccc7)C(O)(C(O)C7(COC(=O)CCCCCCCCCCCCCCC)OC7C3C1O5)C64)O2` (configuration not stated), the T/C is 93 % of control (endpoint: median survival time, dose: 1.0 micrograms/kg/injection, schedule: Q01DX009 (ip), vehicle: Klucel (hydroxypropylcellulose) (HPC), higher = longer survival); 209 % of control (endpoint: median survival time, dose: 1.9 micrograms/kg/injection, schedule: Q01DX009 (ip), vehicle: Klucel (hydroxypropylcellulose) (HPC), higher = longer survival); 86 % of control (endpoint: median survival time, dose: 2.0 micrograms/kg/injection, schedule: Q01DX009 (ip), vehicle: Klucel (hydroxypropylcellulose) (HPC), higher = longer survival); 208 % of control (endpoint: median survival time, dose: 3.8 micrograms/kg/injection, schedule: Q01DX009 (ip), vehicle: Klucel (hydroxypropylcellulose) (HPC), higher = longer survival); 97 % of control (endpoint: median survival time, dose: 4.0 micrograms/kg/injection, schedule: Q01DX009 (ip), vehicle: Klucel (hydroxypropylcellulose) (HPC), higher = longer survival); 209 % of control (endpoint: median survival time, dose: 7.5 micrograms/kg/injection, schedule: Q01DX009 (ip), vehicle: Klucel (hydroxypropylcellulose) (HPC), higher = longer survival). The T/C by setting is: (endpoint: median survival time, dose: 8.0 micrograms/kg/injection, schedule: Q01DX009 (ip), vehicle: Klucel (hydroxypropylcellulose) (HPC), higher = longer survival) 96 % of control; (endpoint: median survival time, dose: 15.0 micrograms/kg/injection, schedule: Q01DX009 (ip), vehicle: Klucel (hydroxypropylcellulose) (HPC), higher = longer survival) 101 % of control; (endpoint: median survival time, dose: 16.0 micrograms/kg/injection, schedule: Q01DX009 (ip), vehicle: Klucel (hydroxypropylcellulose) (HPC), higher = longer survival) 88 % of control.
For `COC1C(O)CC(OC2CC(OC3CC(O[C@@H]4C(=O)c5c(cc6cc(OC7CC(OC8CC(O)C(O)C(C)O8)C(O)C(C)O7)c(C)c(O)c6c5O)C[C@H]4[C@H](OC)C(=O)[C@@H](O)[C@@H](C)O)OC(C)C3O)OC(C)C2O)OC1C` (some centres not stated), the T/C reads like this: (endpoint: median survival time, dose: 37.5 micrograms/kg/injection, schedule: Q01DX009 (ip), vehicle: water, higher = longer survival) 110 % of control; (endpoint: median survival time, dose: 75.0 micrograms/kg/injection, schedule: Q01DX009 (ip), vehicle: water, higher = longer survival) 118 % of control; (endpoint: median survival time, dose: 150.0 micrograms/kg/injection, schedule: Q01DX009 (ip), vehicle: water, higher = longer survival) 86 % of control.
Consider `CC(=O)CC(=O)Nc1ccc(Cl)cc1`, for which the T/C (endpoint: mean tumor weight, dose: 111.0 mg/kg/injection, schedule: Q01DX011 (ip), vehicle: other, higher = larger tumour) is 151 % of control; the T/C (endpoint: mean tumor weight, dose: 166.0 mg/kg/injection, schedule: Q01DX011 (ip), vehicle: other, higher = larger tumour) was 156 % of control; the T/C (endpoint: mean tumor weight, dose: 250.0 mg/kg/injection, schedule: Q01DX011 (ip), vehicle: other, higher = larger tumour) was 121 % of control; the T/C (endpoint: mean tumor weight, dose: 500.0 mg/kg/injection, schedule: Q01DX011 (ip), vehicle: other, higher = larger tumour) was 64 % of control.
In the case of `C[C@]12CCC(=O)C=C1CC[C@@H]1[C@@H]2C(=O)C[C@@]2(C)[C@H]1CC[C@]2(O)C(=O)CO`, the T/C (endpoint: mean tumor weight, dose: 100.0 mg/kg/injection, schedule: Q01DX011 (ip), vehicle: steriod suspending solution, higher = larger tumour) is 58 % of control; the T/C (endpoint: median survival time, dose: 5.0 mg/kg/injection, schedule: Q02DX009 (ip), vehicle: Klucel (hydroxypropylcellulose) (HPC), higher = longer survival) is 102 % of control; the T/C (endpoint: median survival time, dose: 10.0 mg/kg/injection, schedule: Q02DX009 (ip), vehicle: Klucel (hydroxypropylcellulose) (HPC), higher = longer survival) was 102 % of control; the T/C (endpoint: median survival time, dose: 20.0 mg/kg/injection, schedule: Q02DX009 (ip), vehicle: Klucel (hydroxypropylcellulose) (HPC), higher = longer survival) is 101 % of control; the T/C (endpoint: median survival time, dose: 40.0 mg/kg/injection, schedule: Q02DX009 (ip), vehicle: Klucel (hydroxypropylcellulose) (HPC), higher = longer survival) was 97 % of control and 102 % of control.
Consider `O=NN(CCCl)C(=O)NC1CCC(NC(=O)N(CCCl)N=O)CC1` (configuration not stated), for which the T/C is 123 % of control (endpoint: median survival time, dose: 30.0 mg/kg/injection, schedule: Q04DX004 (ip), vehicle: saline with Tween-80, higher = longer survival); 109 % of control (endpoint: median survival time, dose: 45.0 mg/kg/injection, schedule: Q01DX001 (ip), vehicle: saline with Tween-80, higher = longer survival); 156 % of control (endpoint: median survival time, dose: 45.0 mg/kg/injection, schedule: Q04DX004 (ip), vehicle: saline with Tween-80, higher = longer survival); 104 % of control and 122 % of control (endpoint: median survival time, dose: 75.0 mg/kg/injection, schedule: Q04DX004 (ip), vehicle: saline with Tween-80, higher = longer survival); 174 % of control (endpoint: median survival time, dose: 84.0 mg/kg/injection, schedule: Q01DX001 (ip), vehicle: saline with Tween-80, higher = longer survival); 117 % of control and 222 % of control (endpoint: median survival time, dose: 90.0 mg/kg/injection, schedule: Q07DX002 (ip), vehicle: saline with Tween-80, higher = longer survival). The T/C is 116 % of control (endpoint: median survival time, dose: 120.0 mg/kg/injection, schedule: Q07DX002 (ip), vehicle: saline with Tween-80, higher = longer survival); 105 % of control (endpoint: median survival time, dose: 150.0 mg/kg/injection, schedule: Q07DX002 (ip), vehicle: saline with Tween-80, higher = longer survival); 179 % of control (endpoint: median survival time, dose: 171.0 mg/kg/injection, schedule: Q01DX001 (ip), vehicle: saline with Tween-80, higher = longer survival); 112 % of control (endpoint: median survival time, dose: 255.0 mg/kg/injection, schedule: Q01DX001 (ip), vehicle: saline with Tween-80, higher = longer survival); 88 % of control (endpoint: median tumor weight (est.), dose: 30.0 mg/kg/injection, schedule: Q01DX001 (ip), vehicle: saline with Tween-80, higher = larger tumour); 121 % of control (endpoint: median tumor weight (est.), dose: 45.0 mg/kg/injection, schedule: Q01DX001 (ip), vehicle: saline with Tween-80, higher = larger tumour). Besides, the T/C (endpoint: median tumor weight (est.), dose: 67.0 mg/kg/injection, schedule: Q01DX001 (ip), vehicle: saline with Tween-80, higher = larger tumour) was 64 % of control; the T/C (endpoint: median tumor weight (est.), dose: 101.0 mg/kg/injection, schedule: Q01DX001 (ip), vehicle: saline with Tween-80, higher = larger tumour) was 83 % of control; the T/C (endpoint: median tumor weight (est.), dose: 152.0 mg/kg/injection, schedule: Q01DX001 (ip), vehicle: saline with Tween-80, higher = larger tumour) is 23 % of control.
`C(/C=C/C=C/N1CCCCC1)=[N+]1CCCCC1`: the T/C is, setting by setting: (endpoint: median survival time, dose: 0.13 mg/kg/injection, schedule: Q01DX009 (ip), vehicle: saline, higher = longer survival) 101 % of control; (endpoint: median survival time, dose: 0.25 mg/kg/injection, schedule: Q01DX009 (ip), vehicle: saline, higher = longer survival) 110 % of control; (endpoint: median survival time, dose: 0.5 mg/kg/injection, schedule: Q01DX009 (ip), vehicle: saline, higher = longer survival) 117 % of control; (endpoint: median survival time, dose: 1.0 mg/kg/injection, schedule: Q01DX009 (ip), vehicle: saline, higher = longer survival) 110 % of control.
With `NC(=O)NC1NC(=O)NC1=O` (configuration not stated), the T/C runs as follows: (endpoint: mean tumor weight, dose: 15.6 mg/kg/injection, schedule: Q01DX011 (ip), vehicle: saline, higher = larger tumour) 67 % of control; (endpoint: mean tumor weight, dose: 31.3 mg/kg/injection, schedule: Q01DX011 (ip), vehicle: saline, higher = larger tumour) 97 % of control; under setting [1], 69 % of control and 76 % of control; under setting [2], 106 % of control; under setting [3], 103 % of control; (endpoint: mean tumor weight, dose: 500.0 mg/kg/injection, schedule: Q01DX011 (ip), vehicle: saline, higher = larger tumour) 101 % of control.
With `COC1C(OC(=O)/C=C/C=C/C=C/C=C/C(=O)O)CCC2(CO2)C1C1(C)OC1CC=C(C)C` (configuration not stated), the T/C runs as follows: (endpoint: mean tumor weight, dose: 25.0 mg/kg/injection, schedule: Q01DX011 (ip), vehicle: saline, higher = larger tumour) 82 % of control; (endpoint: mean tumor weight, dose: 50.0 mg/kg/injection, schedule: Q01DX011 (ip), vehicle: saline, higher = larger tumour) 38 % of control and 49 % of control; (endpoint: mean tumor weight, dose: 100.0 mg/kg/injection, schedule: Q01DX011 (ip), vehicle: saline, higher = larger tumour) 54 % of control; (endpoint: mean tumor weight, dose: 200.0 mg/kg/injection, schedule: Q01DX011 (ip), vehicle: saline, higher = larger tumour) 23 % of control.
As to `Cc1c(N)nc(C(CC(N)=O)NCC(N)C(N)=O)nc1C(=O)NC(C(=O)NC(C)C(O)C(C)C(=O)NC(C(=O)NCCc1nc(-c2nc(C(=O)NCCC[S+](C)C)cs2)cs1)C(C)O)C(OC1OC(CO)C(O)C(O)C1OC1OC(CO)C(O)C(OC(N)=O)C1O)c1cnc[nH]1` (configuration not stated), the T/C was 116 % of control (endpoint: median survival time, dose: 0.5 mg/kg/injection, schedule: Q01DX009 (ip), vehicle: Klucel (hydroxypropylcellulose) (HPC), higher = longer survival); 121 % of control (endpoint: median survival time, dose: 1.0 mg/kg/injection, schedule: Q01DX009 (ip), vehicle: Klucel (hydroxypropylcellulose) (HPC), higher = longer survival); 121 % of control (endpoint: median survival time, dose: 2.0 mg/kg/injection, schedule: Q01DX009 (ip), vehicle: Klucel (hydroxypropylcellulose) (HPC), higher = longer survival); 121 % of control (endpoint: median survival time, dose: 4.0 mg/kg/injection, schedule: Q01DX009 (ip), vehicle: Klucel (hydroxypropylcellulose) (HPC), higher = longer survival).
Turning to `OCCc1ccccc1`, the T/C runs as follows: under setting [1], 95 % of control; under setting [2], 107 % of control; under setting [3], 75 % of control.
For `CCCCC(=O)OCC(=O)[C@]1(O)Cc2c(O)c3c(c(O)c2[C@@H](OC2CC(NC(=O)C(F)(F)F)C(O)C(C)O2)C1)C(=O)c1c(OC)cccc1C3=O` (some centres not stated), the T/C reads like this: (endpoint: median survival time, dose: 14.0 mg/kg/injection, schedule: Q01DX009 (ip), vehicle: distilled water + Tween-80, higher = longer survival) 114 % of control; (endpoint: median survival time, dose: 20.0 mg/kg/injection, schedule: Q01DX009 (ip), vehicle: distilled water + Tween-80, higher = longer survival) 123 % of control; (endpoint: median survival time, dose: 54.0 mg/kg/injection, schedule: Q01DX001 (ip), vehicle: distilled water + Tween-80, higher = longer survival) 113 % of control; (endpoint: median survival time, dose: 80.0 mg/kg/injection, schedule: Q01DX001 (ip), vehicle: distilled water + Tween-80, higher = longer survival) 155 % of control; (endpoint: median survival time, dose: 120.0 mg/kg/injection, schedule: Q01DX001 (ip), vehicle: distilled water + Tween-80, higher = longer survival) 158 % of control.
